Test results taken from patent US20030147850A1 (priority 2002, published 2003).

Tested on: vesicular stomatitis virus (VSV)
Assay type: cell-based

Disodium succinate hexahydrate
CPE inhibition, % of IFN control: 0%
